40 compounds from ChEMBL document CHEMBL3046834, “MODULATION OF FILARIAL GLUTATHIONE-S-TRANSFERASE(S) ACTIVITY: A POSSIBILITY TOWARDS THE SYNTHESIS OF NEW CLASSES OF ANTIFILARIAL AGENTS” (Med Chem Res, 2004) can be followed below.

The structures appear in SMILES notation. Active and inactive are the calls of the source. No cut-off for these calls is given here.

In series [1] the test system is Brugia malayi. In words: Antifilarial activity against Brugia malayi isolated from jird assessed as motility at 100 uM after 24 hr by dissecting microscopy. The series is classed as functional, organism-based.
Series [2] has as its system GST (glutathione S-transferase). The series can be described thus: Inhibition of GST in Mus musculus (mouse) liver using CDNB as substrate at 100 uM after 10 min by spectrophotometric analysis relative to control. The series is classed as tissue-based. The conditions noted are these: probe CDNB.
Series [3] has as its system Brugia malayi. In words: Antifilarial activity against Brugia malayi isolated from jird assessed as inhibition of MTT reduction at 100 uM after 1 hr. The series is classed as functional. A general note: Formazan colour is commonly taken as a measure of viable cells.
Series [4] is described as follows: Stimulation of GST in Mus musculus (mouse) liver using CDNB as substrate at 100 uM after 10 min by spectrophotometric analysis relative to control. The series is classed as ADME, tissue-based.

The term inhibition denotes the drop in the measured response relative to a control, in per cent. For `CCOC(=O)CC(C1O[C@H]2OC(C)(C)O[C@H]2[C@@H]1OC)N(Cc1ccccc1O)C(=O)Nc1cccc(C(C)=O)c1` (stereo not given in full), in the series with Brugia malayi [1], the outcome was Active. In series [2], the inhibition at 10 min, 100 µM was determined as 23%. Moreover, the inhibition at 100 µM in the series on Brugia malayi [3] was determined as 41%.

In turn, `CCCCN1C(=S)N(c2cccc(Cl)c2)C(=O)CC1[C@H]1O[C@@H]2OC(C)(C)O[C@@H]2[C@H]1OC` (stereo not given in full) returned an Activity in series [4] of 21%. In the series on Brugia malayi [1], the result was Active.

In the case of `COc1ccc(CN2C(=O)N(c3cccc(C(C)=O)c3)C(=O)CC2[C@H]2O[C@@H]3OC(C)(C)O[C@@H]3[C@H]2OC)cc1` (stereo not given in full), in the series on Brugia malayi [1], the result was inactive. This compound also registered an inhibition at 10 min, 100 µM in series [2] of 41%. Besides, in the series on Brugia malayi [3], the inhibition at 100 µM was 59%.

In series [4], `CCOC(=O)CC(NC(=O)[C@@H]1CCCN1)C1O[C@H]2OC(C)(C)O[C@H]2[C@@H]1OC` (stereo not given in full) returned an Activity of 28%. Besides, the outcome with Brugia malayi [1] was Active.

As to `CO[C@@H]1[C@H]2OC(C)(C)O[C@H]2O[C@@H]1C1CC(=O)N(c2cccc(C(C)=O)c2)C(=O)N1Cc1ccc(Br)cc1` (stereo not given in full), in the series with Brugia malayi [1], the result was inactive. For the same compound, in series [2], the inhibition at 10 min, 100 µM stood at 27%.

For `CCOC(=O)CC(NCCCCCCCCCCCCNC(CC(=O)OCC)C1O[C@@H]2OC(C)(C)O[C@@H]2[C@H]1OCc1ccccc1)C1O[C@H]2OC(C)(C)O[C@H]2[C@@H]1OCc1ccccc1` (stereo not given in full), in the series on Brugia malayi [1], the result was inactive.

In series [4], `CCCCCCCCCCCCCCCCNC(CC(=O)NO)C1O[C@H]2OC(C)(C)O[C@H]2[C@@H]1OC` (stereo not given in full) gave an Activity of 214%. Also, the outcome in the series with Brugia malayi [1] was Active. Besides, the inhibition at 100 µM in the series with Brugia malayi [3] worked out at 92%.

With `CO[C@@H]1[C@H]2OC(C)(C)O[C@H]2O[C@@H]1C1CC(=O)N(c2cccc(C#N)c2)C(=O)N1Cc1ccc(Br)cc1` (stereo not given in full), the result in the series on Brugia malayi [1] was inactive. Moreover, the inhibition at 10 min, 100 µM in series [2] was 19%. Also, the inhibition at 100 µM in the series with Brugia malayi [3] came out at 37%.

As for `CO[C@@H]1[C@H]2OC(C)(C)O[C@H]2O[C@@H]1C1CC(=O)N(c2ccc(Br)cc2)C(=O)N1c1ccco1` (stereo not given in full), in the series with Brugia malayi [1], the outcome was inactive. The inhibition at 10 min, 100 µM in series [2] was 32%. For the same compound, the inhibition at 100 µM with Brugia malayi [3] worked out at 32%.

Consider `CCOC(=O)CC(NC(=O)[C@@H](N)C(C)C)C1O[C@H]2OC(C)(C)O[C@H]2[C@@H]1OC` (stereo not given in full), for which the Activity in series [4] is 20%. Also, the outcome in the series on Brugia malayi [1] was Active.

With `CO[C@@H]1C(C(CC(N)=O)N(C(=O)Nc2ccccc2C)C(CC(N)=O)C2O[C@@H]3OC(C)(C)O[C@@H]3[C@H]2OC)O[C@H]2OC(C)(C)O[C@H]21` (stereo not given in full), in the series on Brugia malayi [1], the result was inactive. Moreover, the inhibition at 100 µM in the series with Brugia malayi [3] turned out to be 20%.

As to `CCCCN(C(=S)Nc1ccccc1Cl)C(CC(=O)OCC)C1O[C@H]2OC(C)(C)O[C@H]2[C@@H]1OC` (stereo not given in full), the Activity in series [4] was 38%. The result in the series with Brugia malayi [1] was Active.

Turning to `CO[C@@H]1[C@H]2OC(C)(C)O[C@H]2O[C@@H]1C1CC(=O)N(Cc2ccccc2)C(=O)N1Cc1ccc(Br)cc1` (stereo not given in full), in series [4], the Activity was 41%. For the same compound, the outcome with Brugia malayi [1] was Active.

As for `CC1(C)O[C@H]2O[C@H](C3CC(=O)N(Cc4ccccc4)C(=O)N3Cc3ccc(Br)cc3)[C@H](OCc3ccccc3)[C@H]2O1` (stereo not given in full), the outcome in the series on Brugia malayi [1] was inactive. Also, the inhibition at 100 µM in the series on Brugia malayi [3] was found to be 24%.

As to `COc1ccc(CN2C(=O)N(Cc3ccccc3)C(=O)CC2[C@H]2O[C@@H]3OC(C)(C)O[C@@H]3[C@H]2OCc2ccccc2)cc1` (stereo not given in full), the result in the series on Brugia malayi [1] was inactive.

With `COC(=O)CC(NC(=S)Nc1ccccc1)C1O[C@H]2OC(C)(C)O[C@H]2[C@@H]1OCc1ccccc1` (stereo not given in full), in the series on Brugia malayi [1], the outcome was Active. The inhibition at 100 µM with Brugia malayi [3] was 69%.

Regarding `CO[C@@H]1C(C(CC(N)=O)NC(=O)Nc2ccc(C)c(Cl)c2)O[C@H]2OC(C)(C)O[C@H]21` (stereo not given in full), the outcome in the series with Brugia malayi [1] was inactive.

Regarding `CC1(C)O[C@@H]2OC(CNCCCCCCCCCCCCNCC3O[C@@H]4OC(C)(C)O[C@@H]4[C@H]3OCc3ccccc3)[C@@H](OCc3ccccc3)[C@@H]2O1` (stereo not given in full), in the series on Brugia malayi [1], the result was Active. Further, the inhibition at 100 µM in the series on Brugia malayi [3] stood at 94%.

Consider `CCCCc1ccc(N2C(=O)CC([C@H]3O[C@@H]4OC(C)(C)O[C@@H]4[C@H]3OC)N(Cc3ccccc3)C2=O)cc1` (stereo not given in full), for which the result in the series with Brugia malayi [1] was inactive. Besides, in series [2], the inhibition at 10 min, 100 µM was found to be 13%. Further, the inhibition at 100 µM in the series with Brugia malayi [3] was 76%.

Take `CO[C@@H]1[C@H]2OC(C)(C)O[C@H]2O[C@@H]1C1CC(=O)N(Cc2ccccc2)C(=O)N1Cc1ccccc1` (stereo not given in full): in the series on Brugia malayi [1], the outcome was inactive.

For `COc1ccc(CN2C(=O)N(c3cccc(C#N)c3)C(=O)CC2[C@H]2O[C@@H]3OC(C)(C)O[C@@H]3[C@H]2OC)cc1` (stereo not given in full), the outcome in the series with Brugia malayi [1] was inactive. Also, the inhibition at 10 min, 100 µM in series [2] stood at 20%. Moreover, the inhibition at 100 µM in the series on Brugia malayi [3] was 34%.

Regarding `CC[C@H](C)[C@@H](C(=O)NC(CC(N)=O)C1O[C@H]2OC(C)(C)O[C@H]2[C@@H]1OC)N(C(=O)Nc1ccccc1C)c1ccco1` (stereo not given in full), in the series on Brugia malayi [1], the outcome was Active.

As for `CC1(C)O[C@H]2O[C@H](C3CC(=O)N(Cc4ccccc4)C(=O)N3Cc3ccccc3)[C@H](OCc3ccccc3)[C@H]2O1` (stereo not given in full), in series [4], the Activity is given as 13%. Also, the outcome with Brugia malayi [1] was inactive. In the series on Brugia malayi [3], the inhibition at 100 µM was 65%.

On to `CO[C@@H]1[C@H]2OC(C)(C)O[C@H]2O[C@@H]1C1CC(=O)N(c2ccc(F)cc2)C(=O)N1c1ccco1` (stereo not given in full), for which, in the series on Brugia malayi [1], the result was inactive. In addition, the inhibition at 100 µM with Brugia malayi [3] is 70%.

`CCOC(=O)CC(NC(=O)[C@@H]1CCCN1C(=O)OCC1c2ccccc2-c2ccccc21)C1O[C@H]2OC(C)(C)O[C@H]2[C@@H]1OC` (stereo not given in full) yielded an Activity in series [4] of 197%. Moreover, the result with Brugia malayi [1] was Active. For the same compound, the inhibition at 100 µM with Brugia malayi [3] amounted to 37%.

As to `CCCCCCCCCCCCNC(CC(=O)NO)C1O[C@H]2OC(C)(C)O[C@H]2[C@@H]1OCc1ccccc1` (stereo not given in full), in series [4], the Activity was 57%. The result in the series with Brugia malayi [1] was Active. The inhibition at 100 µM with Brugia malayi [3] was determined as 98%.

Take `CCCCN1C(=S)N(c2ccccc2Cl)C(=O)CC1[C@H]1O[C@@H]2OC(C)(C)O[C@@H]2[C@H]1OC` (stereo not given in full): the Activity in series [4] came to 64%. The result in the series with Brugia malayi [1] was inactive.

With `CC(=O)c1ccc(N2C(=O)CC([C@H]3O[C@@H]4OC(C)(C)O[C@@H]4[C@H]3OCc3ccccc3)NC2=O)cc1` (stereo not given in full), the Activity in series [4] came out at 19%. In the series on Brugia malayi [1], the result was Active. The inhibition at 100 µM with Brugia malayi [3] was determined as 27%.

Compound `COc1ccc(CN2C(=O)N(c3cc(Cl)cc(Cl)c3)C(=O)CC2[C@H]2O[C@@H]3OC(C)(C)O[C@@H]3[C@H]2OCc2ccccc2)cc1` (stereo not given in full) showed an Activity in series [4] of 12%. Moreover, the outcome in the series on Brugia malayi [1] was inactive. The inhibition at 100 µM with Brugia malayi [3] is 92%.

For `CO[C@@H]1[C@H]2OC(C)(C)O[C@H]2O[C@@H]1C1CC(=O)N(c2ccc(Cl)cc2)C(=O)N1` (stereo not given in full), in series [4], the Activity is recorded as 24%. The result in the series with Brugia malayi [1] was inactive. The inhibition at 100 µM in the series with Brugia malayi [3] was found to be 52%.

As for `Cc1cc(N2C(=O)CC([C@H]3O[C@@H]4OC(C)(C)O[C@@H]4[C@H]3OCc3ccccc3)N(Cc3ccc(Br)cc3)C2=O)ccc1Cl` (stereo not given in full), in the series with Brugia malayi [1], the result was Active.

Regarding `CO[C@@H]1[C@H]2OC(C)(C)O[C@H]2O[C@@H]1C1CC(=O)N(c2ccc(Cl)c(C)c2)C(=O)N1Cc1ccc(Br)cc1` (stereo not given in full), in the series with Brugia malayi [1], the outcome was inactive. Besides, the inhibition at 100 µM in the series on Brugia malayi [3] came to 45%.

In the case of `CCCCc1ccc(N2C(=O)CC([C@H]3O[C@@H]4OC(C)(C)O[C@@H]4[C@H]3OC)N(c3ccco3)C2=O)cc1` (stereo not given in full), the outcome in the series with Brugia malayi [1] was inactive. Besides, in the series with Brugia malayi [3], the inhibition at 100 µM came to 57%.

In the case of `COc1ccc(N(C(=O)NCc2ccccc2)[C@@H](CC(=O)O)C(=O)NC(CC(N)=O)C2O[C@H]3OC(C)(C)O[C@H]3[C@@H]2OC)cc1` (stereo not given in full), in the series on Brugia malayi [1], the outcome was inactive.

With `COc1ccc(CN2C(=O)N(c3cccc(C(C)=O)c3)C(=O)CC2[C@H]2O[C@@H]3OC(C)(C)O[C@@H]3[C@H]2OCc2ccccc2)cc1` (stereo not given in full), the Activity in series [4] is 13%. Moreover, the outcome with Brugia malayi [1] was inactive.

Turning to `CCOC(=O)CC(NCCCCCCCNC(CC(=O)OCC)C1O[C@@H]2OC(C)(C)O[C@@H]2[C@H]1OCc1ccccc1)C1O[C@H]2OC(C)(C)O[C@H]2[C@@H]1OCc1ccccc1` (stereo not given in full), in the series with Brugia malayi [1], the outcome was Active.

On to `CC1(C)O[C@@H]2OC(CNCCCCCCCNCC3O[C@@H]4OC(C)(C)O[C@@H]4[C@H]3OCc3ccccc3)[C@@H](OCc3ccccc3)[C@@H]2O1` (stereo not given in full), for which the result in the series with Brugia malayi [1] was inactive.

For the compound `CO[C@@H]1[C@H]2OC(C)(C)O[C@H]2O[C@@H]1C1CC(=O)N(c2cccc(C#N)c2)C(=O)N1Cc1ccccc1` (stereo not given in full), in the series on Brugia malayi [1], the outcome was inactive. For the same compound, the inhibition at 10 min, 100 µM in series [2] worked out at 32%.

Regarding `CCOc1ccc(N2C(=O)CC([C@H]3O[C@@H]4OC(C)(C)O[C@@H]4[C@H]3OC)N(Cc3ccccc3)C2=O)cc1` (stereo not given in full), the result with Brugia malayi [1] was inactive. The inhibition at 100 µM in the series with Brugia malayi [3] stood at 50%.

On to `CCOc1ccc(N2C(=O)CC([C@H]3O[C@@H]4OC(C)(C)O[C@@H]4[C@H]3OC)N(c3ccco3)C2=O)cc1` (stereo not given in full), for which, in the series with Brugia malayi [1], the result was inactive. Besides, the inhibition at 10 min, 100 µM in series [2] is 26%. For the same compound, the inhibition at 100 µM in the series with Brugia malayi [3] worked out at 34%.
